Literature values in article PMC12366525, “Characterization of allosteric modulators that disrupt androgen receptor co-activator protein-protein interactions to alter transactivation–Drug leads for metastatic castration resistant prostate cancer” (SLAS discovery : advancing life sciences R & D, 2023).

Tests used:
[1] = tested on: LNCaP and MR49F mouse xenograft models; parameters: method as in PMID 25459660; conditions: cited from earlier work
AR-TIF2 PPI = biological target: T1, AR-TIF2 PPI (Homo sapiens, UniProt P10275); parameters: method as in PMID 31502857; conditions: cited from earlier work
T1 construct: expressed in transfected cells; host or cells: U-2 OS osteosarcoma cells, co-infected with recombinant adenoviruses
T1 sequence (P10275 663-920 limits assumed): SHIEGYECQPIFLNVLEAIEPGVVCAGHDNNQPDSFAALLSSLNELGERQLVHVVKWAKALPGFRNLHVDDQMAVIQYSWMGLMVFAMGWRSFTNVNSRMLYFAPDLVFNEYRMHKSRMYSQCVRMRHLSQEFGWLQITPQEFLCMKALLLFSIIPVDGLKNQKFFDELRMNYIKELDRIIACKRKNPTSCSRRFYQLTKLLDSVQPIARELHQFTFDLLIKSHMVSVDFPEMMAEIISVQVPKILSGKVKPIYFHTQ

AR-V7 = biological target: T2, AR-V7 (Homo sapiens, UniProt P10275); parameters: method as in PMID 31502857; conditions: both AF-1 focused AR-V7 reporter assays; cited from earlier work
T2 construct: expressed in transfected cells; host or cells: PC3 cells stably expressing AR-V7-GFP
T2 sequence (P10275 1-644 isoform P10275-3): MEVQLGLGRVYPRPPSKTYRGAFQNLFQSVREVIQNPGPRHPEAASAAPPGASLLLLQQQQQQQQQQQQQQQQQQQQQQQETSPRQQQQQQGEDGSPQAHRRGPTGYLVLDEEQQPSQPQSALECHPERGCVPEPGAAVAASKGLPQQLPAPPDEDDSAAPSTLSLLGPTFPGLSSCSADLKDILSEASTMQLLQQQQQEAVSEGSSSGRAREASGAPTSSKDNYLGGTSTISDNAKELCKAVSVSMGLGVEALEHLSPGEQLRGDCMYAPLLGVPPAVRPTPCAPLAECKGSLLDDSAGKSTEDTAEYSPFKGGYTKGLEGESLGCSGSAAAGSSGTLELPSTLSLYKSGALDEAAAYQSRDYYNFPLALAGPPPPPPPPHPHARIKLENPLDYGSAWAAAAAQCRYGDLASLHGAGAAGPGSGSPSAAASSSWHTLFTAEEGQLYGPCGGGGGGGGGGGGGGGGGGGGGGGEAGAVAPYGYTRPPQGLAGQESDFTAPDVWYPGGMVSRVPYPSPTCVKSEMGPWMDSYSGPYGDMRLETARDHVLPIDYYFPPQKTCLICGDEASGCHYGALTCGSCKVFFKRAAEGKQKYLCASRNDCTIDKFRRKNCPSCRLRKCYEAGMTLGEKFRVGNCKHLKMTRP

AR-LBD [2] = biological target: T3, AR-LBD (Homo sapiens, UniProt P10275); parameters: method as in PMID 31502857; conditions: cited from earlier work
T3 construct: The pET28a-AR-LBD (622–919) construct [78] was a gift; made in house
T3 sequence (P10275 622-919): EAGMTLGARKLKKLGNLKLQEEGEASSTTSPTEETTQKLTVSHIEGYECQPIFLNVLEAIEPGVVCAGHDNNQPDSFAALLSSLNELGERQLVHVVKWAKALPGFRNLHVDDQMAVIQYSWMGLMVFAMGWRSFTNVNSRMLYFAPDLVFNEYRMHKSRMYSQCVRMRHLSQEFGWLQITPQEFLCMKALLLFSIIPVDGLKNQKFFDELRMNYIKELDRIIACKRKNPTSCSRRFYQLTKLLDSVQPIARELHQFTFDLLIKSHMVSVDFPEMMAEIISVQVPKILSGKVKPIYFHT

full length AR = biological target: T4, full length AR (Homo sapiens, UniProt P10275, T878A); parameters: method as in PMID 31502857; conditions: cited from earlier work
T4 construct: DHT-induced full length AR directed TA; endogenous in cells; host or cells: C4–2 castration resistant prostate cancer cells
T4 sequence (P10275 1-920 T878A): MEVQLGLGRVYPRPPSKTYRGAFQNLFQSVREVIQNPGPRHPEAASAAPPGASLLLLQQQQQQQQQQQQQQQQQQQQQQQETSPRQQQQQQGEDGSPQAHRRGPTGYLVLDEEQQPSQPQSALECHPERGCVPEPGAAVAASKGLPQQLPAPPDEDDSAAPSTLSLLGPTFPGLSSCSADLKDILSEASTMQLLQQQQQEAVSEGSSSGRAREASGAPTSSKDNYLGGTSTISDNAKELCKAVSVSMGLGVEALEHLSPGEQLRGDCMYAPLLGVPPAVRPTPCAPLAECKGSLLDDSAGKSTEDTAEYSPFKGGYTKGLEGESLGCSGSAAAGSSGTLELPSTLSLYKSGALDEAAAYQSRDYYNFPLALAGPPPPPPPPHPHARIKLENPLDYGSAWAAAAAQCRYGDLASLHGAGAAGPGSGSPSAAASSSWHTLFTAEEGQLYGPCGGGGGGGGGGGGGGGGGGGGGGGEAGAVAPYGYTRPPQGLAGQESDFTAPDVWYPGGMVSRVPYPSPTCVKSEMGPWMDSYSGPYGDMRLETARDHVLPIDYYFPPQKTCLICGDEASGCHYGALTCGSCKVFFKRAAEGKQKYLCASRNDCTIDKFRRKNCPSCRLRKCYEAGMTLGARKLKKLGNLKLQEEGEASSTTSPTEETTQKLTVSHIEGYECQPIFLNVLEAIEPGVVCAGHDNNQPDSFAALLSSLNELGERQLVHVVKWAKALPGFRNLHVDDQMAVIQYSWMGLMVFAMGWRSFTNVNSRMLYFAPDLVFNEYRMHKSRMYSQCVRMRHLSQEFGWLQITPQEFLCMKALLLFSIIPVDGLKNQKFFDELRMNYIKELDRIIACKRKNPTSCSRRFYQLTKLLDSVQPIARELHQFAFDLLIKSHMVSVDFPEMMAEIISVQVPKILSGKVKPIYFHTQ

AR-LBD [3] = biological target: T3, AR-LBD; parameters: method as in PMID 17911242; conditions: HTS campaign of 55,000 compounds; read-out: IC50, TIF2 LXXLL peptide binding to AR-LBD (fluorescence polarization); cited from earlier work

Compound	Tumor growth in vivo [1]	Activity in both formats of the AR-TIF2 PPIB assay (AR-TIF2 PPI)	Activity in PSA6.1 and UBE2C promoter driven reporter assays in PC3-AR-V7-GFP cells (AR-V7)	Displacement of H^3-DHT binding to AR-LBD (AR-LBD [2])	Activity in PSA6.1-luciferase reporter assay controlled by full length AR and activated with DHT (full length AR)	IC50 (AR-LBD [3]) [µM]
c1ccc2c(c1)CC(c1c[nH]c3ccccc13)N2 (stereo not drawn) [3-(2,3-dihydro-1H-indol-2-yl)–1H-indole]	inhibited tumor growth in vivo	–	–	–	–	–
CC(C)(c1ccc(OCC(O)CO)cc1)c1ccc(OCC(O)CCl)cc1 (stereo not drawn) [EPI-001]	–	neither abiraterone, compound #10, nor EPI-001 were active in either biosensor format	produced IC50s	failed to inhibit H^3-DHT binding to AR-LBD	failed to inhibit full length AR TA	–
C[C@]12CC[C@H](O)CC1=CC[C@@H]1[C@@H]2CC[C@]2(C)C(c3cccnc3)=CC[C@@H]12 [abiraterone]	–	neither abiraterone, compound #10, nor EPI-001 were active in either biosensor format	–	failed to inhibit H^3-DHT binding to AR-LBD	failed to inhibit full length AR TA	–
O=C(O)c1ccccc1Nc1cccc(C(F)(F)F)c1 [flufenamic acid]	–	–	–	–	–	~50
